Usually EC50 stands for the concentration giving half of the maximal effect. What is called IC50 is the concentration that gives 50% inhibition.

Read-outs that look alike come from different tables or passages of the source.

In data set [1] the test system is recombinant DENV2 (WT, C780A, C780Q NS5). It is filed as cell-based.
In data set [2] the test system is DENV2 P04/08 strain. Kind of data set: Cell-based antiviral assay, viral RNA in supernatant of infected Vero cells (RT-qPCR). The following applies: 72 hours after infection. For orientation: In qPCR the cycle at which signal appears reflects the starting amount.
For data set [3], the system named is DENV4 (H241 strain). The data set is described as above. The following applies: 72 h, viral RNA 3 days after infection. The method, then: (§1) The experiments were performed in triplicate.
Data set [4] relates to DENV2 16681 strain. Described as above. Conditions: Dengue virus, 72 h; DENV2 16681, Vero cells, viral RNA 3 days after infection. The method, then:
as §1

Data set [5] has as its system DENV3 (H87 strain). Described as above. The following applies: 72 h, viral RNA 3 days after infection. The procedure:
as §1

The test system of data set [6] is NS5 proteins from DENV1–4. It is filed as biochemical. Conditions: range over NS5 proteins from DENV1–4; read-out: IC50 values, RdRp activities.
The target in data set [7] is T1, full-length DENV4 NS5 (Dengue virus type 4, UniProt P09866).
T1 construct: full-length NS5 proteins, comprising the N-terminal MTase and the C-terminal RdRp; His-tag (N, cleaved yes); SUMO (N, cleaved yes); made in house; host or cells: E. coli KRX
Description: biochemical. Conditions: read-out: IC50 Polymerase assay.

Data set [8] concerns DENV1–4 infections. Kind of data set: Cell-based antiviral assay, summary over serotypes. The following applies: range over DENV1–4; read-out: EC50 values, antiviral activities. The method, then: as §1
Data set [9] has as its target T2, full-length DENV3 NS5 (Dengue virus type 3, UniProt P27915).
T2 construct: full-length NS5 proteins, comprising the N-terminal MTase and the C-terminal RdRp; His-tag (N, cleaved yes); SUMO (N, cleaved yes); made in house; host or cells: E. coli KRX
Kind of data set: biochemical.

The test system of data set [10] is DENV1 (Mochizuki strain). Description: Cell-based antiviral assay, viral RNA in supernatant of infected Vero cells (RT-qPCR). Also on record: species or system Dengue virus serotype 1 (DENV1). Conditions: Dengue virus, 72 h, viral RNA 3 days after infection. The method, then: as §1
Data set [11] deals with Vero cells. Description: Cytotoxicity, WST-1 assay. It is filed as cell-based. Conditions: two days culture. The method, then:
The cytotoxic activities of the compounds were tested using a WST-1 assay (Roche Diagnostics), according to the manufacturer’s instructions. […] Ten μL of WST-1 solution was added to each well, and the cells were further incubated for 30 min. The absorbance was measured at 450 nm, with subtraction of the nonspecific background at 650 nm.
On the technique in general: Tetrazolium assays rely on reduction of a dye to a coloured formazan, in cell work by metabolically active cells.

In the case of `CC(=O)Oc1ccc2oc(=O)sc2c1` [RK-0404678, (2-Oxo-1,3-benzoxathiol-5-yl) acetate], the EC50 in data set [1] (DENV2 NS5 C780A mutant virus (Site 1)) turned out to be 3.3 ± 1.1 µM; in data set [1] (DENV2 NS5 C780Q mutant virus (Site 1)) it was 12.8 ± 2.2 µM; in data set [1] (WT (recombinant) DENV2 virus), 7.1 ± 0.67 µM; in data set [3], 31.9 ± 2.8 µM; in [4], 6 ± 0.3 µM; in [5], 29.4 ± 1.8 µM. The concentration giving a half-maximal response (EC50) was 6 to 31.9 µM in data set [8] and 29.5 ± 4.2 µM in data set [10]. The “antiviral effect on DENV2 P04/08 strain compared with 16681 strain” value in [2] is on record as “comparable effect”. The results for the IC50 in data set [6], in data set [7] and in [9] were 46.2 to 445 µM, 445 ± 23 µM and 287 ± 11 µM, respectively. The “cytotoxicity in Vero cells” value in data set [11] is listed as “marginal cytotoxicity even at the highest concentration (50 μM)”.

These data come from publication PMC6886872, “Discovery of a small molecule inhibitor targeting dengue virus NS5 RNA-dependent RNA polymerase” (PLoS Neglected Tropical Diseases, 2019).
